The text below walks through data of patent US7829560B2, “1,4-disubstituted naphthalenes as inhibitors of P38 MAP kinase” (Arqule, Inc., priority 2004, dated 2010).

In one data set the target is T1, p38α (Homo sapiens, UniProt Q16539).
T1 construct: p38 MAP Kinases are recombinant human full-length proteins with an amino-terminal GST fusion; GST (N); purchased Upstate Biotechnology Inc; host or cells: E. coli
Nature of the data set: p38 MAP Kinase assay: inhibition of ATF2 phosphorylation, ELISA. Format: biochemical. To be noted: ATF2 phosphorylation; read-out: [ENZ] P38 ALPHA, IC50, ELISA. A digest of the protocol: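 GST-tagged full-length human p38 MAP kinase with GST-ATF2 (aa 19–96; 1.25 μM) and 40 μM ATP in HEPES pH 7.5 buffer, without (Method I) or with (Method II) 1% human serum albumin. Compound pre-incubated 15 min at room temperature; reaction 30 min at 37 °C; ATF2 Thr69 phosphorylation measured by ELISA (A450).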
(In general: An ELISA detects its analyte on a solid surface through an enzyme-linked reagent.)

Data set [1] deals with TNFα release from THP-1 cells. Nature of the data set: Inhibition of TNFα release from LPS-stimulated THP-1 cells, ELISA. It is filed as cell-based. The following applies: Homo sapiens, THP-1, THP-1 cells, read-out: [CELL] THP-1, IC50, TNF ALPHA, ELISA. A digest of the protocol: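 Human THP-1 monocytes, 10^6 cells/ml in RPMI with 10% FBS, no serum or 1% HSA, preincubated 30 min at 37 °C with compound (≤0.5% DMSO), then stimulated with 10 μg/ml LPS for 18 h. Supernatant TNFα measured by ELISA; IC50 from non-linear dose-response regression.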

T1 sequence (Q16539 whole entry, the tested form may be a part): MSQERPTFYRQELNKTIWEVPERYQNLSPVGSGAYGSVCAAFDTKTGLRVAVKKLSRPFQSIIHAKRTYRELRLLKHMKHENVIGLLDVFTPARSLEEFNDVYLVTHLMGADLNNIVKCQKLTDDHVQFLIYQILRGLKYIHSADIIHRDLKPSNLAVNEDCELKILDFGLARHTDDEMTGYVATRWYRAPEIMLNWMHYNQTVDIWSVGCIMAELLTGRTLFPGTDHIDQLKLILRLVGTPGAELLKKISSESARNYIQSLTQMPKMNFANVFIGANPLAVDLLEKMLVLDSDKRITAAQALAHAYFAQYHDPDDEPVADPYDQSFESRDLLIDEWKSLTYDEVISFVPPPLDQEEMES

`CCn1c(COc2ccc(NC(=O)c3cc(F)cc(N4CCC(C)CC4)c3)c3ccccc23)n[nH]c1=O` [Compound B220, N-[4-(4-Ethyl-5-oxo-4,5-dihydro-1H-[1,2,4]triazol-3-ylmethoxy)-naphthalen-1-yl]-3-fluoro-5-(4-methyl-piperidin-1-yl)-benzamide] came in with a melting point of 240 to 241 °C. Moreover, the IC50 at p38α was found to be 145 nM. In addition, in data set [1], the IC50 came to 2870 nM.
Regarding `O=C(Nc1ccc(OCCCc2cccnc2)c2ccccc12)c1cc(F)cc(N2CCOCC2)c1` [Compound B222, 3-Fluoro-5-morpholin-4-yl-N-[4-(3-pyridin-3-ylpropoxy)-1-naphthyl]benzamide], the melting point was 64 to 66 °C. Also, the IC50 on p38α turned out to be 820 nM. Also, the IC50 in data set [1] came out at 9380 nM.
Turning to `O=C(Nc1ccc(OCCN2CCOCC2)c2ccccc12)c1cc(F)cc(OC2CCCC2)c1` [Compound B225, 3-(Cyclopentyloxy)-5-fluoro-N-[4-(2-morpholin-4-ylethoxy)-1-naphthyl]benzamide], the melting point lay within 117 to 119 °C. In addition, the half-maximal inhibitory concentration (IC50) on p38α turned out to be 439 nM. In addition, in data set [1], the concentration for half-maximal inhibition (IC50) worked out at 4090 nM.
Consider `CC1CCC(Oc2cc(F)cc(C(=O)Nc3ccc(OCCN4CCOCC4)c4ccccc34)c2)C1` (stereo not drawn) [Compound B227, 3-Fluoro-5-[(3-methylcyclopentyl)oxy]-N-[4-(2-morpholin-4-ylethoxy)-1-naphthyl]benzamide], for which the melting point is 65 to 66 °C. The IC50 on p38α was found to be 808 nM. Moreover, the IC50 in data set [1] worked out at 4120 nM.
The corresponding values for `O=C(Nc1ccc(OCc2ccncc2)c2ccccc12)c1cc(F)cc(OC2CCOCC2)c1` [Compound B229, 3-Fluoro-N-[4-(pyridin-4-ylmethoxy)-1-naphthyl]-5-(tetrahydro-2H-pyran-4-yloxy)benzamide] are 182 to 184 °C, 821 nM and 5660 nM.
The corresponding values for `O=C(Nc1ccc(OCc2ccncc2)c2ccccc12)c1cc(F)cc(N2CCCCC2)c1` [Compound B230, 3-Fluoro-5-piperidin-1-yl-N-[4-(pyridin-4-ylmethoxy)-1-naphthyl]benzamide] are 69 to 71 °C, 25.7 nM and 630 nM.
In the case of `Cc1ncsc1CCOc1ccc(NC(=O)c2cc(F)cc(N3CCOCC3)c2)c2ccccc12` [Compound B231, 3-Fluoro-N-{4-[2-(4-methyl-1,3-thiazol-5-yl)ethoxy]-1-naphthyl}-5-morpholin-4-ylbenzamide], the melting point was in the range of 186 to 187 °C. Besides, the half-maximal inhibitory concentration (IC50) at p38α amounted to 27.7 nM. In addition, the IC50 in data set [1] came to 193 nM.
As for `CC1=NC(C)(COc2ccc(NC(=O)c3cc(F)cc(N4CCOCC4)c3)c3ccccc23)CO1` (stereo not drawn) [Compound B232, N-{4-[(2,4-Dimethyl-4,5-dihydro-1,3-oxazol-4-yl)methoxy]-1-naphthyl}-3-fluoro-5-morpholin-4-ylbenzamide], the melting point lay within 203 to 206 °C. Also, the IC50 at p38α turned out to be 7860 nM. The half-inhibitory concentration (IC50) in data set [1] was determined as 4280 nM.
The corresponding values for `O=C(Nc1ccc(OCc2ccncc2)c2ccccc12)c1cc(F)cc(OC2CCCCC2)c1` [Compound B235, 3-(Cyclohexyloxy)-5-fluoro-N-[4-(pyridin-4-ylmethoxy)-1-naphthyl]benzamide] are 176 to 178 °C, 125 nM and 557 nM.
Regarding `CSc1nccc(Oc2ccc(NC(=O)c3cc(F)cc(N4CCOCC4)c3)c3ccccc23)n1` [Compound B246, 3-Fluoro-N-(4-{[2-(methylthio)pyrimidin-4-yl]oxy}-1-naphthyl)-5-morpholin-4-ylbenzamide], the melting point fell in the range of 189 to 190 °C. The concentration for half-maximal inhibition (IC50) at p38α amounted to 40.2 nM. Besides, the IC50 in data set [1] was 69.4 nM.
The compound `CSc1nccc(Oc2ccc(NC(=O)c3cc(F)cc(N4CCC(C)CC4)c3)c3ccccc23)n1` [Compound B247, 3-Fluoro-5-(4-methylpiperidin-1-yl)-N-(4-{[2-(methylthio)pyrimidin-4-yl]oxy}-1-naphthyl)benzamide] had a melting point of 142 to 143 °C. Also, at p38α, the IC50 is 587 nM. In addition, the concentration for half-maximal inhibition (IC50) in data set [1] worked out at 780 nM.
In the same order, the values of `O=C(Nc1ccc(Oc2ccnc(N3CCOCC3)n2)c2ccccc12)c1cc(F)cc(N2CCOCC2)c1` [Compound B248, 3-Fluoro-5-morpholin-4-yl-N-{4-[(2-morpholin-4-ylpyrimidin-4-yl)oxy]-1-naphthyl}benzamide] are 104 to 106 °C, 46.6 nM and 157 nM.
Turning to `O=C(Nc1ccc(Oc2ccnc(NCc3ccccc3)n2)c2ccccc12)c1cc(F)cc(N2CCOCC2)c1` [Compound B249, N-(4-{[2-(Benzylamino)pyrimidin-4-yl]oxy}-1-naphthyl)-3-fluoro-5-morpholin-4-ylbenzamide], the melting point was in the range of 121 to 123 °C. In addition, the concentration for half-maximal inhibition (IC50) on p38α worked out at 13.9 nM. For the same compound, the half-inhibitory concentration (IC50) in data set [1] came to 12.4 nM.
As to `O=C(Nc1ccc(Oc2ccnc(NCCO)n2)c2ccccc12)c1cc(F)cc(N2CCOCC2)c1` [Compound B252, 3-Fluoro-N-[4-({2-[(2-hydroxyethyl)amino]pyrimidin-4-yl}oxy)-1-naphthyl]-5-morpholin-4-ylbenzamide], the melting point lay in the range of 127 to 129 °C. The half-inhibitory concentration (IC50) on p38α was 31.9 nM. Also, the IC50 in data set [1] came out at 30.8 nM.
The corresponding values for `CCn1c(COc2ccc(NC(=O)c3cc(F)cc(N4CCOCC4)c3)c3ccccc23)n[nH]c1=O` [Compound B255, N-[4-(4-Ethyl-5-oxo-4,5-dihydro-1H-[1,2,4]triazol-3-ylmethoxy)-naphthalen-1-yl]-3-fluoro-5-morpholin-4-yl-benzamide] are 260 °C, 578 nM and 1940 nM.
`CC1CCN(c2cc(F)cc(C(=O)Nc3ccc(OCc4n[nH]c(=O)n4-c4ccccc4)c4ccccc34)c2)CC1` [Compound B263, 3-Fluoro-5-(4-methyl-piperidin-1-yl)-N-[4-(5-oxo-4-phenyl-4,5-dihydro-1H-[1,2,4]triazol-3-ylmethoxy)-naphthalen-1-yl]-benzamide]: the melting point fell in the range of 140 to 143 °C. Moreover, on p38α, the IC50 amounted to 5080 nM. Also, the IC50 in data set [1] is 4260 nM.
As to `CSc1nccc(Oc2ccc(NC(=O)c3cc(F)cc(N4CCCC4)c3)c3ccccc23)n1` [Compound B264, 3-Fluoro-N-(4-{[2-(methylthio)pyrimidin-4-yl]oxy}-1-naphthyl)-5-pyrrolidin-1-ylbenzamide], the melting point was 180 to 181 °C. Besides, the IC50 on p38α was found to be 189 nM. In addition, in data set [1], the IC50 was determined as 177 nM.
`COc1nccc(Oc2ccc(NC(=O)c3cc(F)cc(N4CCOCC4)c3)c3ccccc23)n1` [Compound B267, 3-Fluoro-N-{4-[(2-methoxypyrimidin-4-yl)oxy]-1-naphthyl}-5-morpholin-4-ylbenzamide] yielded a melting point of 216 to 217 °C. Besides, on p38α, the half-inhibitory concentration (IC50) came to 56.9 nM. In addition, the IC50 in data set [1] is 29.2 nM.
For `CS(=O)(=O)c1nccc(Oc2ccc(NC(=O)c3cc(F)cc(N4CCOCC4)c3)c3ccccc23)n1` [Compound B268, 3-Fluoro-N-(4-{[2-(methylsulfonyl)pyrimidin-4-yl]oxy}-1-naphthyl)-5-morpholin-4-ylbenzamide], the melting point lay in the range of 173 to 175 °C. Besides, the 50% inhibitory concentration (IC50) on p38α worked out at 519 nM. Also, the IC50 in data set [1] is 1370 nM.
`CSc1nccc(-c2ccc(NC(=O)c3cc(F)cc(N4CCOCC4)c3)c3ccccc23)n1` [Compound B270, 3-Fluoro-N-[4-(2-methylsulfanyl-pyrimidin-4-yl)-naphthalen-1-yl]-5-morpholin-4-yl-benzamide] showed a melting point of 135 to 138 °C. The 50% inhibitory concentration (IC50) on p38α stood at 1650 nM. The IC50 in data set [1] was 6420 nM.
Take `CSc1nccc(Oc2ccc(NC(=O)c3cc(F)cc(OC4CCCCC4)c3)c3ccccc23)n1` [Compound B303, 3-(Cyclohexyloxy)-5-fluoro-N-(4-{[2-(methylthio)pyrimidin-4-yl]oxy}-1-naphthyl)benzamide]: the melting point was 130 to 132 °C. Also, the IC50 at p38α came out at 275 nM. Moreover, the IC50 in data set [1] stood at 232 nM.
With `CSc1nccc(Oc2ccc(NC(=O)c3cc(F)cc(OC4CCCC4)c3)c3ccccc23)n1` [Compound B304, 3-(Cyclopentyloxy)-5-fluoro-N-(4-{[2-(methylthio)pyrimidin-4-yl]oxy}-1-naphthyl)benzamide], the melting point lay in the range of 115 to 116 °C. The half-inhibitory concentration (IC50) at p38α was 225 nM. In addition, in data set [1], the IC50 came out at 239 nM.
Regarding `CSc1nccc(Oc2ccc(NC(=O)c3cccc(OC(C)(C)C)c3)c3ccccc23)n1` [Compound B306, 3-tert-Butoxy-N-[4-(2-methylsulfanyl-pyrimidin-4-yloxy)-naphthalen-1-yl]-benzamide], the melting point is 135 to 136 °C. For the same compound, the IC50 on p38α was determined as 74.5 nM. The IC50 in data set [1] was determined as 152 nM.
The corresponding values for `CSc1nccc(Oc2ccc(NC(=O)c3cc(F)cc(N4CCCCC4)c3)c3ccccc23)n1` [Compound B311, 3-Fluoro-N-(4-{[2-(methylthio)pyrimidin-4-yl]oxy}-1-naphthyl)-5-piperidin-1-ylbenzamide] are 170 to 172 °C, 56 nM and 179 nM.

Broadly, the IC50 is the point on the concentration scale where inhibition reaches its midpoint. By melting point is commonly meant the temperature of the solid-liquid transition.
